Measured values from patent US9376415B2, “Tricyclic condensed heterocyclic compound, process of producing same, and use thereof” (NIPPON SUISAN KAISHA, LTD., priority 2009, dated 2016).

What was measured:
Assay type in all cases: cell-based
HT-29 = assay: Cell growth inhibitory activity (Almar Blue), HT-29; settings: Homo sapiens; HT-29 cancer cells, cultured for 72 hours
Experimental: (§1) The cell growth inhibitory activity of Compound 1 was evaluated using 4 types of cancer cells. The cancer cells used were human cancer cells (HT-29, A431, NCI-H460, […]). Compound 1 was dissolved in DMSO. One hundred […] of a suspension of cancer cells was charged in each 96 well micro plate (1.0 to 3.0×10^3 cells/well). After 24 hours, each of solutions of Compounds 1 to 6 was added in an amount of 2 ml to 100 ml of culture fluid to give final concentrations of […] and cultured for 72 hours. Thereafter, 20 ml of an Almar Blue reagent was added to each solution, followed by culturing for 6 hours.
The cell growth inhibitory activity of Compound 6 was evaluated using cancer cells (HT-29). The method for the evaluation was the same as the method by which Compound 1 was evaluated.

NCI-H460 = assay: Cell growth inhibitory activity (Almar Blue), NCI-H460; settings: Homo sapiens; NCI-H460 cancer cells, cultured for 72 hours
Experimental: as §1

U937 = assay: Cell growth inhibitory activity (Almar Blue), U937; settings: Homo sapiens, U-937; U937 cancer cells, cultured for 72 hours
Experimental: as §1

PC-3 = assay: Cell growth inhibitory activity (Almar Blue), PC-3; settings: Homo sapiens; PC-3 cancer cells, cultured for 72 hours

| Compound | IC50 (HT-29) | IC50 (NCI-H460) | IC50 (U937) | IC50 (PC-3) |
| --- | --- | --- | --- | --- |
| C/C=C(/C)C1OC2C(C)=CC(C)(/C=C/C(=O)O)C3C(C)=CC1(C)C23C (centres unmarked) [Compound 1] | 590 nM | 580 nM | 1100 nM | 820 nM |
| C=C1C(O)C(C)(/C=C/C(=O)O)C2C(C)=CC3(C)C(/C(C)=C\C)OC1C23C (centres unmarked) [Compound 6] | 310 nM |  |  |  |
